Experimental data from ChEMBL document CHEMBL2407077, “Cycloforskamide, a cytotoxic macrocyclic peptide from the sea slug Pleurobranchus forskalii” (J Nat Prod, 2013).
Numbered stars: 1 amine (or outer) side, 2 acyl side, 3 side chain; on linkers, the order of the positions; unused ones are H or OH. Square brackets hold non-standard residues; d marks the D form. Peptide text beside a SMILES is read from it. X2 = CC[C@H](C)[C@@H](N[*:1])C1=N[C@H](C(=O)[*:2])CS1; X1 = O=C([C@@H]1CSC([C@H]2CCCN2[*:1])=N1)[*:2]

Test system: P388
Assay: Cytotoxicity against mouse P388 cells after 3 days by MTT assay
Assay type: functional, cell-based
Conditions: P388, 72 h

Row | Structure (SMILES) | IC50 [µM]
1 | CC[C@H](C)[C@@H]1NC(=O)[C@@H]2CSC(=N2)[C@H]2CCCN2C(=O)[C@H]([C@@H](C)O)NC(=O)[C@H](C(C)C)NC(=O)[C@H](C(C)C)NC(=O)[C@H]([C@@H](C)O)NC(=O)[C@@H]2CSC(=N2)[C@@H]([C@@H](C)CC)NC(=O)[C@H](C(C)C)NC(=O)[C@@H]2CSC(=N2)[C@H]2CCCN2C1=O [CYCLOFORSKAMIDE] (cyclo(I[X1]V[X2]TVVT[X1])) | 5.8
2 | COc1cccc2c1C(=O)c1c(O)c3c(c(O)c1C2=O)C[C@@](O)(C(=O)CO)C[C@@H]3O[C@H]1C[C@H](N)[C@H](O)[C@H](C)O1 [DOXORUBICIN] | 0.21
